Molecular target: T1, Gamma-aminobutyric acid receptor subunit beta-3 (Homo sapiens, UniProt P28472)
T1 sequence (P28472 whole entry): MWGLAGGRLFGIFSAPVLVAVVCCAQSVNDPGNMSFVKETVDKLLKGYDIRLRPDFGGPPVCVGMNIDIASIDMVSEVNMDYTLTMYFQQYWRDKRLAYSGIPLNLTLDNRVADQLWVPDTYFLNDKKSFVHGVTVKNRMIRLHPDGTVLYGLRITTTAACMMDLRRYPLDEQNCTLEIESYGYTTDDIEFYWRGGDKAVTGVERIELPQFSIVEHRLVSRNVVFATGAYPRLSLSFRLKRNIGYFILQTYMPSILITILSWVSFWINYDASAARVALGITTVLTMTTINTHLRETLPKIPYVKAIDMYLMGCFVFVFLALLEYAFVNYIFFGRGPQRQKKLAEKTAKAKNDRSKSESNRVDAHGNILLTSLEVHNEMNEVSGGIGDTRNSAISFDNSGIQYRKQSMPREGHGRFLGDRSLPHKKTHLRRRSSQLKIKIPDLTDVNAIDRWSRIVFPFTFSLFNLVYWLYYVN
Assay: Inhibition of [3H]EBOB binding to human GABA-A receptor beta3 subunit (range 1-28)

| SMILES | IC50 [nM] |
| --- | --- |
| FC(F)(F)c1cc(Cl)c(-n2cc(C3(C(F)(F)F)N=N3)cn2)c(Cl)c1 | 28 |
| N#Cc1nn(-c2c(Cl)cc(C(F)(F)F)cc2Cl)c(N)c1[S+]([O-])C(F)(F)F (configuration not stated) [FIPRONIL] | 28 |

Source: ChEMBL document CHEMBL1133847, “Fipronil-based photoaffinity probe for Drosophila and human beta 3 GABA receptors” (Bioorg Med Chem Lett, 2001)
